Measured values reported in publication PMC6271500, “Bowman-Birk Protease Inhibitor from Vigna unguiculata Seeds Enhances the Action of Bradykinin-Related Peptides” (Molecules, 2014).

Tests used:
[1] = test system: bovine pancreatic trypsin; assay: Trypsin inhibition by BTCI (BAPNA substrate); assay type: biochemical; details: BTCI 10 µM, peptide 0–10 µM
Protocol: (§1) The inhibitory activities of BTCI against bovine pancreatic trypsin (25 kDa; A280^1% = 15.90) and chymotrypsin (24 kDa; A280^1% = 20.40) (Sigma Co.) were first determined in the absence of Bk and Bk-related peptides. Briefly, the residual enzymatic activities were assayed by mixing 40 µL of chymotrypsin (28.60 µM) or trypsin (2.57 µM) with BTCI at concentration range of 0–10 µM for trypsin and 0–40 µM for chymotrypsin at 25 °C for 15 minutes. After that, 200 µL of 0.40·mg·mL^−1 N-glutaryl-L-phenylalanine-p-nitroanilide (GPNA) in 50 mM Tris-HCl, 20 mM CaCl2, pH 7.6 for chymotrypsin assay or 0.43 mg·mL^−1 Nα-benzoyl-DL-arginine 4-nitroanilide hydrochloride (BAPNA) in 50 mM Tris-HCl, 20 mM CaCl2, pH 8.2 for trypsin assay were added. Substrate hydrolysis was done for 15 minutes and stopped by adding 30% (v/v) acetic acid. The enzymatic assays were also carried out in the presence of Bk at similar concentration of BTCI. The relative enzymatic activities were evaluated by the liberation of p-nitroanilide, which was monitored at 410 nm using a SpectraMax Plus 384 Microplate Reader spectrophotometer (Molecular Devices, Sunnyvale, CA, USA). The obtained values are an average of three independent measurements. Inhibition curves were obtained by plotting relative activities of the proteases vs. BTCI concentration in the absence or presence of Bk and Bk-related peptides. […]

[2] = Dynamic light scattering, free peptides and free BTCI; assay type: physicochemical; details: 25 µM, 2 mM Tris-HCl pH 7.4, 37 °C
Protocol: (§2) The hydrodynamic properties of the BTCI through the complex formation with Bk and analogues were monitored using DLS technique with laser source operated at 800 nm on the DynaPro LSR model (Wyatt Technology Corporation, Santa Barbara, CA, USA). The internal temperature was controlled by a Peltier system coupled to the detector. The Bk, Bk-related peptides, BTCI and BTCI-Bk, BTCI-Bk-related peptides complexes, were incubated for 30 minutes in 2 mM Tris-HCl pH 7.4 and then centrifuged at 5000 g and filtered ([…]) before the DLS experiments. The average of 100 acquisitions for each measure was considered for BTCI (25 µM) and synthetic Bk-related peptides (25 µM) separately and subsequently for the BTCI-Bk complexes (1:1). The formation of complexes was analyzed at 37 °C, considering the relationship of the scattered light intensity signal and the hydrodynamic diameter of the samples, using the Dynamics V6 program (Wyatt Technology Corporation).

[3] = test system: guinea pig (Cavia porcellus) ileum; assay: Smooth muscle constriction force assay, guinea pig ileum
Protocol: Male guinea pigs (Cavia porcellus) weighing between 200 and 300 g and fasted for 24 h were euthanized using an overdose of anesthetic at 120 mg/kg (ketamine and xylazine). The protocol was approved by the Committee on the Ethics of Animal Experiments of the Institute of Biology, University of Brasilia (Proc. Number 737402/2008). Segments of 2 cm from the terminal portion of the ileum were removed and washed in Tyrode’s solution (g/L: 8.00 NaCl,0.20 KCl, 0.20 CaCl2, 0.21 MgCl2), and attached to a glass rod that was immersed in a physiological bath chamber with a capacity of 10 mL containing Tyrode solution at 37 °C. In the opposite region, a thread of silk was attached to the F-60 isometric transducer connected to a polygraph (NARCO Bio-Systems, Houston, TX, USA). The bath was kept aerated constantly with carbogen (95% O2 + 5% CO2). Previously, as a control, smooth muscle response was analyzed using Bk from Sigma Aldrich. Experiments were done in triplicate, and constriction force was analyzed by addition of Bk and analogues in the absence or presence of BTCI, in three concentrations: 1, 5 or 10 µM. The hypotensive effects of the complexes were also evaluated in the presence of trypsin or chymotrypsin. After each experiment, the bath solution was exchanged three times in order to remove the drug used. Statistical analysis was carried out using the Paleontological Statistics (PAST) Software Package for Education and Data Analysis. A value of Student’s t-test p < 0.05 was considered to denote a significant difference.

BTCI = assay: Dynamic light scattering, BTCI-Bk complex formation; assay type: binding, Vigna unguiculata
Protocol: as §2

bovine chymotrypsin = assay: Chymotrypsin inhibition by BTCI (GPNA substrate); assay type: biochemical; details: BTCI 40 µM, peptide 0–10 µM
Protocol: as §1

[4] = Cardiovascular effects of infusion of Bk and Bk-related peptides with BTCI or vehicle in anesthetized rats; assay type: in vivo, male Wistar rats; details: for aortic vasodilation (change in AVC) / change in mean arterial pressure (MAP) / renal vasodilation (change in RVC): from the baseline value, mean ± SEM, 6 experiments
Protocol: All experiments were conducted on adult male Wistar rats (280–350 g). They were obtained from the central animal house of the Federal University of Goiás. Experimental procedures were designed with strict adherence to the National Health Institute Guidelines for Care and Use of Laboratory Animals as approved by the Ethics Committee, Federal University of Goiás (034/12).
On the day of experiments, the rats were anesthetized with halothane (2%–3% in 100% O2; Cristália Ltda, Itapira, SP, Brazil) prior to the catheterization of the right femoral vein and artery. After the catheter placement, the rats were removed from the halothane and the anesthesia was maintained with urethane (1.2 g·kg^−1 b.wt., i.v.; Sigma-Aldrich Co.). The trachea was cannulated to reduce airway resistance. The body temperature was kept at 37 ± 0.5 °C with a thermostatically controlled heated table.
Renal blood flow (RBF) and aortic blood flow (ABF) were measured with an ultrasonic transit-time flowmeter (Transonic Systems, Inc., Ithaca, NY, USA). Data were recorded continuously with an analog-to-digital converter (PowerLab 4/25, ML845, AD Instruments, Bella Vista, Australia). Mean arterial pressure (MAP) was determined from the pulsatile signal. Aortic vascular conductance (AVC) and renal vascular conductance (RVC) were calculated by a ratio of ABF and RBF divided by MAP, and were expressed as percentage of baseline. Increasing doses of BTCI (0.3, 3, 30 and 300 µg·kg^−1, i.v.) were infused.
Results are presented as means ± S.E.M. The effects of infusion of Bk, Bk-related peptides and BTCI on cardiovascular parameters were analyzed by one-way ANOVA. […] A value of Student’s t-test p < 0.05 was considered to denote a significant difference.

[5] = peptide 120 µg·kg^−1 + BTCI 3 µg·kg^−1, i.v.
[6] = peptide 120 µg·kg^−1 i.v. + BTCI 3 µg·kg^−1 i.v.
[7] = peptide 120 µg·kg^−1 i.v., without BTCI

## [Val]^1[Thr]^6-bradykinyl-Gln-Ser [Bk2]
[1]
  effect of peptide on BTCI inhibition of trypsin: did not interfer in their activities
[2]
  polydispersity, peptide: lower than 0.15
[3]; 10 µM, after activation by trypsin treatment
  contraction force relative to Bk: approximately 1.3 fold
[3]; data not shown
  smooth muscle contraction when pretreated with BTCI and serine proteases: did not induce muscle contraction
[3]; free peptide, 1, 5, 10 µM, 37 °C, triplicate
  smooth muscle contraction: unable to exert their contractive effects
[3]; peptide pretreated with trypsin, 1.0, 5.0, 10.0 µM
  smooth muscle contraction after trypsin pretreatment: induced smooth muscle contraction, in a concentration-responsive manner (Figure 7), and at higher levels than Bk in free state
BTCI; 1:1 complex, pH 7.4, 37 °C
  polydispersity of peptide complexed with BTCI (in words): moderate polidispersity
BTCI; BTCI 25 µM : peptide 25 µM (1:1), 30 min, 2 mM Tris-HCl pH 7.4, 37 °C
  hydrodynamic diameter of BTCI in the presence of peptide: increased from 1.7 nm to 3.3 nm
Bovine chymotrypsin
  effect of peptide on BTCI inhibition of chymotrypsin: did not interfer in their activities
[4]; [5]
  effect of association with BTCI on aortic vasodilation: potentiated
  effect of association with BTCI on renal vasodilation: potentiated renal
[4]; [6]
  aortic vasodilation (change in AVC): 28% ± 2.6%
  change in mean arterial pressure (MAP): −12 ± 2.7 mmHg
  renal vasodilation (change in RVC): 29% ± 4.9%
[4]; [7]
  aortic vasodilation (change in AVC): 19% ± 2.7%
  change in mean arterial pressure (MAP): −12 ± 1.2 mmHg
  renal vasodilation (change in RVC): 19% ± 3.0%
